The results in this text go back to ChEMBL document CHEMBL1127089, “Non-nucleoside inhibitors of HIV-1 reverse transcriptase: molecular modeling and X-ray structure investigations” (J Med Chem, 1993).

Structures are written as SMILES.

This test concerns the target Human immunodeficiency virus type 1 reverse transcriptase (Human immunodeficiency virus 1, UniProt Q72547). Description: In vitro for inhibitory activity against HIV-1 Reverse Transcriptase.
As to `O=C1c2ccccc2[C@H]2SCCN1c1ccccc12`, the IC50 is 830 nM.
The result for `Cc1cccc(C23SCCN2C(=O)c2ccccc23)c1` (stereo unspecified) reads 30 nM; that for `O=C1c2ccccc2C2(c3ccccc3)SCCN12` (stereo unspecified), 280 nM.
The result for `O=C1c2ccccc2C2(c3cccc4ccccc34)SCCN12` (stereo unspecified) reads 150 nM; that for `O=C1c2ccccc2[C@@]23CC=CCC12c1ccccc1C3=O` (stereo partly specified), 8700 nM; that for `CC(C)=CCN1Cc2cccc3[nH]c(=S)n(c23)C[C@@H]1C`, 160 nM.

For orientation: IC50 means the concentration at which inhibition is half-maximal.
